# Tests used:
# A498 cells = details: MTT assay
# Method: (§1) Vitilevuamide prepared according to the procedure of Example 1 or Example 2 was tested against a panel of human tumor cell lines: (a) a colon cancer cell line, HCT 116 (obtained from ATCC), M. Brattain, 41 Cancer Res. 1751 (1986); (b) an adenocarcinoma cell line, A549, D. J. Giard, 51 J. Nat'l Cancer Inst. 1417 (1973); (c) a malignant melanoma cell line, SK-MEL-5, H. F Oteggen, 41 J. Nat'l Cancer Inst. 827 (1968); and (d) a kidney carcinoma cell line, A498, S. Aaronson, 51 J. Nat'l Cancer Inst. 1417 (1973). Cells were cultured according to the procedure of M. C. Alley et al., 48 Cancer Res. 589 (1988), hereby incorporated by reference.
# (§2) Screening was performed in a 96-well microtiter plate by the standard 3-[4,5-dimethylthiazol-2-yl]-[…] bromide; thiazolyl blue (MTT) cell inhibition assay adopted for anticancer drug screening at NIH. J. Carmichael et al., 47 Cancer Res. 936 (1987), hereby incorporated by reference. Positive controls were run simultaneously.
# A549 cells = details: MTT assay
# Method: as §1, §2
# HCT 116 cells = details: MTT assay
# Method: as §1, §2
# SK-MEL-5 cells = details: MTT assay
# Method: as §1, §2
# C6 rat glioma cells = test: Tubulin inhibition assay (db-cAMP rounding, MTT readout); type: cell-based; details: 4 h treatment then 1 mM db-cAMP, colchicine 25 μg/mL positive control
# Method: C6 rat glioma cells (ATCC CCL107) were seeded into the wells of a microtiter plate and then incubated for 1 day. The cells were then treated with a range of vitilevuamide concentrations, normally 5 orders of magnitude, and incubated for 4 additional hours. The cells were then treated for 1 hour with 1 mM dibuteryl-cAMP (db-cAMP), which causes the C6 cells to assume a spherical morphology ("rounding") within 60 minutes due to polymerization of tubulin. Cells that are exposed to tubulin-active compounds, on the other hand, display a different morphological change--flattening and adherence to the substrate. All of the wells were then jet aspirated, and the wells were resupplied with fresh medium containing MTT. The glioma cells metabolize MTT to a dark formazan dye. P. R. Twentyman & M. Luscombe, 56 Br. J. Cancer 279 (1987); F. Denizot & R. Lang, 89 J. Immunol. Methods 271 (1986). Following 4 hours of incubation, absorbance was measured at 450 nm. Colchicine (25 μg/mL) was used as the positive control.
# P388 tumor cells = test: In vivo P388 tumor life span test in CDF1 mice; details: days 1, 5, 9, CDF1 mice with P388
# Method: Vitilevuamide was also screened for in vivo activity by injecting CDF1 mice intraperitoneally on day 0 with 1×10^6 P388 tumor cells. Five animals were randomly assigned to a group. On days 1, 5, and 9 after tumor implantation, these mice were treated intraperitoneally with either a placebo or the drug. Animals were checked twice daily, and the day of death of each mouse was recorded. A positive drug response is defined as a greater than 25% increase in the mean life span (% ILS) relative to the placebo control.
smiles,measurement,setting,value
C=C1NC(=O)[C@H]([C@@H](C)CC)NC(=O)C2CSCC(NC(=O)CCC(=O)O)C(=O)N[C@H](Cc3ccccc3)C(=O)N[C@H](C)C(=O)NC(CC(C)CC)C(=O)N[C@@H](C(=O)N[C@H](Cc3ccccc3)C(=O)N3CCC[C@H]3C(=O)N2)[C@@H](C)OC(=O)[C@H](CO)NC(=O)C(C(O)COC)N(C)C(=O)[C@@H](C(C)C)NC(=O)C(CC(C)CC)NC1=O (stereo partly drawn) [vitilevuamide],50% inhibitory concentration (IC50),A498 cells,5 µg/mL
same,50% inhibitory concentration (IC50),A549 cells,0.2 µg/mL
same,50% inhibitory concentration (IC50),HCT 116 cells,0.01 µg/mL
same,50% inhibitory concentration (IC50),SK-MEL-5 cells,0.5 µg/mL
same,concentration showing the same effect as colchicine,C6 rat glioma cells,4 µg/mL
same,% ILS (increase in mean life span relative to placebo),P388 tumor cells; 0.006 mg/kg/dose i.p.,8%
same,% ILS (increase in mean life span relative to placebo),P388 tumor cells; 0.012 mg/kg/dose i.p.,20%
same,% ILS (increase in mean life span relative to placebo),P388 tumor cells; 0.03 mg/kg/dose i.p.,70%
same,% ILS (increase in mean life span relative to placebo),P388 tumor cells; 0.06 mg/kg/dose i.p.,-13%
same,toxicity remark at dose,P388 tumor cells; 0.06 mg/kg/dose i.p.,toxic
same,% ILS (increase in mean life span relative to placebo),P388 tumor cells; 0.13 mg/kg/dose i.p.,-45%
same,toxicity remark at dose,P388 tumor cells; 0.13 mg/kg/dose i.p.,toxic
